Where two headings read alike, the source gives them in different places.
Assay: log P by HPLC on reversed-phase columns (C 18), EEC Directive 79/831 Annex V.A8
Assay type: physicochemical
Conditions: for chromatographic logP: reversed-phase C18 HPLC column
[1] = [a] HPLC, acid region pH 2.3, 0.1% aqueous phosphoric acid and acetonitrile
[2] = [b] LC-MS, acid region pH 2.7, 0.1% aqueous formic acid and acetonitrile

Row | log p [1] | log p [2] | SMILES | further results
1 | – | 2.56^[b] | CCOCC(C1CC1)N(C)C=Nc1cc(C)c(Oc2nc(Cc3ccc(Cl)cc3)ns2)cc1C (centres unmarked) [Example 124] | –
2 | – | 1.83^[b] | Cc1cc(Oc2nc(Cc3ccc(SC(F)(F)F)cc3)ns2)c(C)cc1N=CN(C)C1CC1 [Example 126] | –
3 | 2.76^[a] | – | Cc1cc(F)c(Br)cc1Cc1nsc(Oc2cc(C)c(N=CN3CCCCC3)cc2C)n1 [Example 115] | –
4 | – | 2.38^[b] | Cc1cc(Oc2nc(Cc3ccc(C(F)(F)F)cc3)ns2)c(C)cc1N=CN(C)CC(F)F [Example 129] | –
5 | – | 2.2^[b] | Cc1cc(Oc2nc(Cc3ccc(OC(F)(F)F)cc3)ns2)c(C)cc1N=CN(C)C1CC1 [Example 141] | –
6 | – | 2.68^[b] | Cc1cc(Oc2nc(Cc3ccc(SC(F)(F)F)cc3)ns2)c(C)cc1N=CN(C)CC(F)F [Example 125] | –
7 | – | 2.06^[b] | Cc1cc(Oc2nc(Cc3ccc(Cl)cc3)ns2)c(C)cc1N=CN(C)C1CC1 [Example 123] | –

The remaining lines, values behind:

Row | SMILES | log p [1] | log p [2] | further results
8 | Cc1cc(Oc2nc(C(C)c3ccc(Cl)cc3)ns2)c(Cl)cc1N=CN1CCCCC1 (centres unmarked) [Example 21, 5-chloro-4-({3-[1-(4-chlorophenyl)ethyl]-1,2,4-thiadiazol-5-yl}oxy)-2-methyl-N-(piperidin-1-ylmethylidene)aniline] | – | – | chromatographic logP (pH 2.3, [a] HPLC, acid region pH 2.3, 0.1% aqueous phosphoric acid and acetonitrile, read-out: log p): 2.67
9 | CCN(C)C=Nc1cc(C)c(Oc2nc(Cc3ccc(F)cc3)ns2)cc1C [Example 60] | 1.74^[a] | – | –
10 | CCN(C)C=Nc1cc(C)c(Oc2nc(Cc3ccccc3Cl)ns2)cc1C [Example 61] | 1.97^[a] | – | –
11 | CCOc1ccc(Cc2nsc(Oc3cc(C)c(N=CN(C)CC)cc3C)n2)cc1 [Example 89] | 2.06^[a] | – | –
12 | Cc1cc(Oc2nc(Cc3ccc(F)cc3)ns2)c(C)cc1N=CN1CCCCC1 [Example 57] | 2.05^[a] | – | –
13 | CCN(C)C=Nc1cc(C)c(Oc2nc(Cc3ccc(F)c(C(F)(F)F)c3)ns2)cc1C [Example 94] | 2.24^[a] | – | –
14 | CCN(C)C=Nc1cc(C)c(Oc2nc(Cc3cc(F)ccc3F)ns2)cc1C [Example 67] | 1.66^[a] | – | –
15 | Cc1cc(Oc2nc(Cc3cccc(Cl)c3)ns2)c(C)cc1N [4-{[3-(3-Chlorobenzyl)-1,2,4-thiadiazol-5-yl]oxy}-2,5-dimethylaniline] | – | – | chromatographic logP (pH 2.3, pH 2.3, given in synthesis examples, read-out: log P (pH2.3)): 3.68
16 | CCN(C)C=Nc1cc(C(C)C)c(Oc2nc(Cc3ccc(Br)cc3)ns2)cc1C [Example 111] | 2.75^[a] | – | –
17 | Cc1cc(Oc2nc(Cc3ccc(SC(F)(F)F)cc3)ns2)c(C)cc1N=CN1CCCCC1 [Example 88] | 2.67^[a] | – | –
18 | CCOCC(NC=Nc1cc(C)c(Oc2nc(Cc3ccc(OC(F)(F)F)cc3)ns2)cc1C)C1CC1 (centres unmarked) [Example 101] | 2.85^[a] | – | –
19 | CCN(C)C=Nc1cc(C)c(Oc2nc(Cc3ccccc3Br)ns2)cc1C [Example 100] | 2.32^[a] | – | –
20 | COc1cccc(Cc2nsc(Oc3cc(C)c(N=CN4CCCCC4)cc3C)n2)c1 [Example 87] | 2.17^[a] | – | –
